Columns and labels:
pre-osteoclastic cells = experiment: Viability/proliferation of osteoclast progenitors (cytotoxicity of 4C); assay type: cell-based, mouse; conditions: at up to 100 μM; without RANKL and M-CSF
Method: (§1) (A) “4C” structure with NMR in dimethyl sulfoxide (DMSO). (B) Purity by high-performance liquid chromatography (HPLC). Ficoll processed non-adherent bone marrow cells were seeded at 20,000 per well in 96-well-plate and stimulated with the indicated concentration of cytokines (macrophage-colony stimulating factor (M-CSF), 30 ng ml^−1 from day 1; receptor activator of nuclear factor kappa-B ligand (RANKL), 50 ng ml^−1 from day 3); fresh cytokines were added every other day. (C) No cytotoxicity of 4C to the proliferation of osteoclast (OC) progenitors (without RANKL and M-CSF). (D-E) Representative TRAP staining images and analysis of WT mouse bone marrow in vitro OC cultures treated with 1 mM succinate or control in the presence of SucnR1 antagonist 4C at indicated concentrations. **p<0.01, *** p<0.001 according to Bonferroni post hoc test after ANOVA, N=5.
(§2) The structure of the synthetic antagonist of SucnR1 4C was authenticated using nuclear magnetic resonance spectroscopy (FIG. 2A) with a purity of 98.002% according to high-performance liquid chromatography (FIG. 2B).

[1] = test system: osteoclast culture derived from ficoll processed mouse bone marrow cells; experiment: Succinate-stimulated osteoclastogenesis in bone marrow osteoclast cultures (TRAP staining); assay type: cell-based; conditions: 1 mM succinate, in vitro
Method: as §1, §2

[2] = molecular target: T1, Human Succinate Receptor 1 (Homo sapiens, UniProt Q9BXA5); experiment: Human Succinate Receptor 1 AequoScreen cell line calcium signal upon succinate activation; assay type: cell-based; conditions: succinate 500 μM, read-out: inhibition of SucnR1 activation by succinate
T1 sequence (Q9BXA5 1-334): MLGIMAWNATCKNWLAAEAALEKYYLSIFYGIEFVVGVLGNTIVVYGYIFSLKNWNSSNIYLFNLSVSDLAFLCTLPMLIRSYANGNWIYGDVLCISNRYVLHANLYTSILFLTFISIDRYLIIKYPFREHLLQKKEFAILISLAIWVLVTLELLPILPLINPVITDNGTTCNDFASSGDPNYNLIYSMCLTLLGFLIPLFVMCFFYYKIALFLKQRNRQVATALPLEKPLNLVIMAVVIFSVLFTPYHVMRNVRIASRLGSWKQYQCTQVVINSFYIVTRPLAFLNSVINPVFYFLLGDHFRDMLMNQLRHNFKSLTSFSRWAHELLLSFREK
Method: Human Succinate Receptor 1 AequoScreen® Cell Line (PerkinElmer ES-744-A) was used to assess the activity of SUCNR1 upon activation by ligand (succinate 500 μM) in the presence and absence of antagonists. Cells were seeded at 5,000 cells/well for 24 hour before the calcium dye was added. Forty-five minutes later, the antagonists were added at indicated concentrations. Fifteen minutes later, the ligand was added and the fluorescent signal (EX/EM: 485/525) was measured immediately on a plate reader. A) The efficacy of 3 newly synthesized compounds in comparison with 4C at the same concentration. (*p<0.05, **p<0.001 by t-test in comparison to ligand alone post One-Way ANOVA) B) Dose effects of the compound 7a at various concentrations. (*p<0.05, **p<0.001 in comparison to […] by t-test post One-Way ANOVA).
Structure-activity relationship studies were performed using the compounds depicted in FIG. 7. The structure and purity of the compounds were confirmed via HPLC and NMR. At the same concentration of 4C, these antagonists inhibited the activation of SucnR1 by succinate in vitro (FIG. 8A).

Row | SMILES | inhibitory effect on the viability of pre-osteoclastic cells (pre-osteoclastic cells) | reduction of succinate stimulation of osteoclastogenesis ([1]; 4C at 0.1 μM) | reduction of succinate stimulation of osteoclastogenesis ([1]; 4C at 10 μM) | inhibition at 20 µM [2] [%]
1 | C[C@H](NC(=O)Cc1ccc(-c2ccc3cccnc3n2)cc1)c1ccc(-c2ccc(F)c(C(F)(F)F)c2)cc1 [4C] | no inhibitory effect | started to reduce the stimulation of succinate | completely erase the simulation of osteoclastogenesis by succinate | –
2 | CNC(=O)Cc1ccc(-c2ccc3cccnc3n2)cc1 [Cpd-7a] | – | – | – | 50

— patent US11376216B2, “Periodontal disease therapy” (New York University, priority 2018, dated 2022)
